Patent US20210393745A1, “OLIGOMER EXTENDED INSULIN-FC CONJUGATES AND THEIR MEDICAL USE” (Novo Nordisk A/S, priority 2018, published 2021)

What was measured:
[1] = test system: streptozotocin treated Sprague-Dawley rats; experiment: In vivo PD, blood glucose lowering in streptozotocin treated rats; set-up: species or system Sprague-Dawley rat; conditions: s.c. 30 nmol/kg, baseline corrected BG up to 10 days, difference from vehicle, mean
Procedure: (§1) Insulin-Fc conjugates were tested in vivo by subcutaneous (s.c.) administration to normal and streptozotocin (STZ) treated male Sprague-Dawley (SD) rats.
(§2) The rats were dosed s.c. in the neck region with a dose of 30 nmol/kg of the insulin-Fc conjugates. Blood samples for blood glucose and plasma insulin analysis were collected from the tongue vein up to 10 days post dosing. The insulin-Fc concentrations were measured by immuno-assay (LLOQ=1000 pM) and the resulting half-life values after s.c. dosing are shown in Table 4. The PK profiles for normal rats are shown in FIG. 3 and for streptozotocin treated rats in FIG. 6. Blood glucose (BG) was measured using Biosen S Line (EKF) and the BG and baseline corrected BG profiles for normal rats are shown in FIGS. 1 and 2 and for streptozotocin treated rats in FIGS. 4 and 5 respectively.

[2] = In vivo PK after s.c. dosing, streptozotocin treated rats; set-up: species or system Sprague-Dawley rat; conditions: s.c. 30 nmol/kg, mean value
Procedure: as §1, §2

[3] = target: T1, membrane-associated human IR-B (Homo sapiens, UniProt P06213); experiment: Insulin receptor affinity on membrane associated receptors (SPA), IR-B; assay type: binding; conditions: relative to human insulin
T1 construct: expressed in transfected cells; host or cells: BHK cells, pZem219B vector, plasma membrane preparation
T1 sequence (P06213 28-758 limits assumed): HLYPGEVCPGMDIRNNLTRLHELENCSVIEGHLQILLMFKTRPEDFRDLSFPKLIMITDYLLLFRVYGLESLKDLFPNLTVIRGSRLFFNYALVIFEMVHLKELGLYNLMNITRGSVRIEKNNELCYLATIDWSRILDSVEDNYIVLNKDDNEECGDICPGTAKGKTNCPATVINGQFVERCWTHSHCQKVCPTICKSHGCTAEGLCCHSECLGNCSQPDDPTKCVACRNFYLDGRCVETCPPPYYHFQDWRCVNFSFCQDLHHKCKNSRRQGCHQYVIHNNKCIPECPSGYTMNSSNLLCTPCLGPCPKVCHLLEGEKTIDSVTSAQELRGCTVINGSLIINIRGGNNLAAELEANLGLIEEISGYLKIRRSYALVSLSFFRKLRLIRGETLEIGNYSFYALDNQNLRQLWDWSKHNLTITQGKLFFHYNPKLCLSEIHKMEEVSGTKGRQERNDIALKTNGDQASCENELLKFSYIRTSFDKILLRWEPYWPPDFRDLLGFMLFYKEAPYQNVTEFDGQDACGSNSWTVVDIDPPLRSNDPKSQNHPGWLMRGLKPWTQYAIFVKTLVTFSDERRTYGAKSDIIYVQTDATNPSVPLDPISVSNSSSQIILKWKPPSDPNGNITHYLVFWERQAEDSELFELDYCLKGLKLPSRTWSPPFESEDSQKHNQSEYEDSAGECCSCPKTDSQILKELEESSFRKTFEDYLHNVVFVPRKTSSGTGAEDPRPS
T1 sequence (P06213 763-1382 partner limits assumed): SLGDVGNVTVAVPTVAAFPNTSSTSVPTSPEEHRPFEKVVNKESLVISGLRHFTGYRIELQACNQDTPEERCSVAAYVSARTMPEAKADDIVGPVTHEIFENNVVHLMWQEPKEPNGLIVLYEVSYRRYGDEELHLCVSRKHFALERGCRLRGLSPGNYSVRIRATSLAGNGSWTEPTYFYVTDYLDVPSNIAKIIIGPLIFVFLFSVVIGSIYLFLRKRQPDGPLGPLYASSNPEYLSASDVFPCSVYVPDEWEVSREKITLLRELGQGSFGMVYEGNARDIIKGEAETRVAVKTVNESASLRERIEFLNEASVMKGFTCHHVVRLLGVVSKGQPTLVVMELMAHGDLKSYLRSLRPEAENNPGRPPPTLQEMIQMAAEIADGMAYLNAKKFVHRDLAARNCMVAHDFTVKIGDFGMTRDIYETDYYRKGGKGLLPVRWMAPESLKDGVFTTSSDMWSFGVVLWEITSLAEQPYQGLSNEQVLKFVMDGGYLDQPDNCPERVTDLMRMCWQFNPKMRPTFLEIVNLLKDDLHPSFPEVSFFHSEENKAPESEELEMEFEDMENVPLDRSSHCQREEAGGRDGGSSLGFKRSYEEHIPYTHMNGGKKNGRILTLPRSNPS
Procedure: Membrane-associated human IR and IGF-1R are purified from BHK cells stably transfected with the pZem219B vector containing either the human IR-A, IR-B or IGF-IR insert. BHK cells are harvested and homogenized in ice-cold buffer (25 mM HEPES pH 7.4, 25 mM CaCl2 and 1 mM MgCl2, 250 mg/L bacitracin, 0.1 mM Pefablock). The homogenates are layered on a 41% (w/v) sucrose cushion and centrifuged for 75 minutes at 95000 g at 4° C. The plasma membranes are collected, diluted 1:5 with buffer (as above) and centrifuged again for 45 minutes at 40000 g at 4° C. The pellets are resuspended in a minimal volume of buffer and drawn through a needle (size 23) three times before storage at −80° C. until usage. The relative binding affinity for either of the membrane-associated human IR-A, IR-B or IGF-1R is determined by competition binding in a SPA setup. IR assays are performed in duplicate in 96-well OptiPlates (Perkin-Elmer Life Sciences). Membrane protein is incubated with gentle agitation for 150 minutes at 25° C. with 50 pM [^125IA14Y]-human insulin in a total volume of […] assay buffer (50 mM HEPES, 150 mM NaCl, 5 mM MgSO4, 0.01% Triton X-100, 0.1% (w/v) HSA (Sigma A1887), Complete EDTA-free protease inhibitors), 50 μg of wheat germ agglutinate (WGA)-coated PVT microspheres (GE Healthcare) and increasing concentrations of ligand. Assays are terminated by centrifugation of the plate at 2000 rpm for 2 minutes and bound radioactivity quantified by counting on a TopCount NXT (Perkin-Elmer Life Sciences).
IGF-1R assays are conducted essentially as for the IR binding assays except that membrane-associated IGF-1R and 50 pM [^125I-Tyr31]-human IGF-1 were employed.

[4] = test system: normal Sprague-Dawley rats; experiment: In vivo PD, blood glucose lowering in normal rats; set-up: species or system Sprague-Dawley rat; conditions: s.c. 30 nmol/kg, baseline corrected BG up to 10 days, difference from vehicle, mean
Procedure: as §1, §2

[5] = In vivo PK after s.c. dosing, normal rats; set-up: species or system Sprague-Dawley rat; conditions: s.c. 30 nmol/kg, mean value
Procedure: as §1, §2

[6] = Stability study: high-molecular weight products by native size-exclusion chromatography; assay type: physicochemical; conditions: HMWP %(5° C.) − HMWP %(30° C.), 30 μM, pH 7.4
Procedure: Samples for stability studies were prepared by weighing out 8-10 mg freeze-dried material. The freeze-dried material was solubilized to […] in a premade solution A (5 mM phophate (pH 7.4), 140 mM NaCl and 70 ppm polysorbate 20). Protein concentration was determined using absorbance at 280 nm using a Nanodrop 2000 (Thermo Fisher Scientific Inc.) and theoretical extinction coefficients. Dilution into solution A was done to reach a final concentration of 30 μM.
Native size-exclusion chromatography was performed on a High-Performance Liquid Chromatography system (Waters Alliance) equipped with a UV/Vis detector (Waters 2489 UV/Vis detector). A Waters XBridge BEH 200 Å, 3.5 μm column with dimensions 7.8×300 mm, kept at 30° C., was used. The mobile phase was 50 mM sodium phosphate (pH 7.0), 50 mM NaCl, 5% isopropyl alcohol (v/v). Injection volume was 5 μL. The flow rate was kept at 0.5 mL/min. Peaks were detected using absorbance at 215 nm and data processing is performed with the EMPOWER 3 software from Waters. Samples were analysed for high molecular weight products (HMWP) by relating the total integral of material eluting before main peak with main monomeric peak. In all chromatograms, full baseline separation was observed. […]
Stability of Fc-insulin analogues was evaluated by comparing purity from anion exchange chromatography and formation of high molecular weight products (HMWP) at 5° C. […]

Substance	AOCBG STZ rat [1] [mM·h]	PK STZ rat [T1/2, s.c. (h)] [2] [h]	hIR-B mem Rel. aff. (%) [3] [%]	AOCBG normal rat [4] [mM·h]	PK normal rat [T1/2, s.c. (h)] [5] [h]	Δ HMWP % [6] [%]
(A14E, A21G, A22(GQEP)12, A70K^, A71P, B25H, B29R, desB30 human insulin)/(226A, 227G, 228P, 234A, 235K, 297E, 315Q, 384Q, des447 hIgG4-Fc(226-447))3,5-bis[(2-acetyl)amino]benzoyl Conjugate [Example 5.1]	3181	24	3.05	251	20	−2.17
(A14E, A21G, A22(GQEP)11, A66G, A67Q, A68E, A69K^, A70P, B16H, B25H, B29R, desB30 human insulin)/(226A, 227G, 228P, 234A, 235K, 297E, 315Q, 384Q, des447 hIgG4-Fc(226-447))3,5-bis[(2-acetyl)amino]benzoyl Conjugate [Example 5.2]	4106	39	1.26	364	38	−0.63
